Measured values reported in ChEMBL document CHEMBL5344413, “Discovery of 4-(1,2,4-Oxadiazol-5-yl)azepan-2-one Derivatives as a New Class of Cannabinoid Type 2 Receptor Agonists for the Treatment of Inflammatory Pain” (J Med Chem, 2023).
Active and inactive are the calls of the source.

Columns and labels:
[1] = Half life in BALB/c mouse at 5 mg/kg, ip; type: ADME, organism-based; conditions: in vivo
[2] = tested on: Mus musculus; experiment: Antinociceptive activity against carrageenan-induced inflammatory C57BL/6 mouse model assessed as reduction in hyperalgesia by measuring increase in paw withdrawal threshold at 20 mg/kg, ip administered with CB2 receptor antagonist, AM630 at 10 mins prior to drug challenge and measured at 5 hrs and 2 hrs following carrageenan and compound challenge respectively by plantar esthesiometer analysis; type: functional, organism-based
[3] = tested on: Mus musculus; experiment: Antinociceptive activity against ip dosed carrageenan-induced inflammatory C57BL/6 mouse model assessed as reduction in hyperalgesia by measuring increase in paw withdrawal threshold measured at 5 hrs and 2 hrs following carrageenan and compound challenge respectively by plantar esthesiometer analysis; type: functional, organism-based; conditions: dose 5-20 mg/kg
[4] = MRT(0 to t) in BALB/c mouse at 1 mg/kg, iv; type: ADME, organism-based; conditions: in vivo
[5] = Tmax in BALB/c mouse at 5 mg/kg, ip; type: ADME, organism-based; conditions: in vivo
[6] = Clearance in BALB/c mouse at 5 mg/kg, ip; type: ADME, organism-based; conditions: in vivo
[7] = Clearance in BALB/c mouse at 5 mg/kg, po; type: ADME, organism-based; conditions: in vivo
[8] = tested on: CHO; experiment: Agonist activity at CB2 receptor F872.57A mutant (unknown origin) expressed in CHO cells assessed as inhibition of forskolin-stimulated intracellular cAMP accumulation measured after 30 mins by Glosensor assay; type: cell-based; conditions: Homo sapiens
[9] = biological target: T1, Cannabinoid receptor 2 (Homo sapiens, UniProt P34972); experiment: Agonist activity at human CB2 receptor expressed in CHO cells assessed as inhibition of forskolin-stimulated intracellular cAMP accumulation measured after 30 mins by Glosensor assay relative to control; type: functional, cell-based; conditions: filed as agonist
[10] = tested on: Mus musculus; experiment: Antinociceptive activity against carrageenan-induced inflammatory C57BL/6 mouse model assessed as reduction in paw thickness at 20 mg/kg, ip administered with CB2 receptor antagonist, AM630 at 10 mins prior to drug challenge and measured at 5 hrs and 2 hrs following carrageenan and compound challenge respectively by digital caliper analysis; type: functional, organism-based
[11] = Oral bioavailability in BALB/c mouse at 5 mg/kg; type: ADME, organism-based; conditions: in vivo
[12] = Half life in mouse liver microsomes at 10 uM; type: ADME, Microsome
[13] = MRT(0 to t) in BALB/c mouse at 5 mg/kg, ip; type: ADME, organism-based; conditions: in vivo
[14] = biological target: Cannabinoid receptor 1 (Homo sapiens, UniProt P21554); experiment: Agonist activity at human CB1 receptor expressed in CHO cells assessed as inhibition of forskolin-stimulated intracellular cAMP accumulation measured after 30 mins by Glosensor assay; type: cell-based
[15] = Cmax in BALB/c mouse at 5 mg/kg, ip; type: ADME, organism-based; parameters: dose 5 mg/kg, route ip; conditions: in vivo
[16] = tested on: Mus musculus; experiment: Antinociceptive activity against carrageenan-induced inflammatory C57BL/6 mouse model assessed as reduction in hyperalgesia by measuring increase in paw withdrawal threshold at 20 mg/kg, po measured at 5 hrs and 2 hrs following carrageenan and compound challenge respectively by plantar esthesiometer analysis; type: functional, organism-based
[17] = Intrinsic clearance in mouse liver at 10 uM measured per kg body weight; type: ADME, tissue-based
[18] = tested on: CHO; experiment: Agonist activity at CB2 receptor W1945.43A mutant (unknown origin) expressed in CHO cells assessed as inhibition of forskolin-stimulated intracellular cAMP accumulation measured after 30 mins by Glosensor assay; type: cell-based; conditions: Homo sapiens
[19] = biological target: T1, Cannabinoid receptor 2; experiment: Agonist activity at N-terminal HA/Flag-tagged CB2 receptor (unknown origin) expressed in CHO cells assessed as increase in Akt phosphorylation measured after 15 mins by western blot analysis; type: functional, cell-based; conditions: filed as agonist, dose 12-300 nM
[20] = Cmax in BALB/c mouse at 1 mg/kg, iv; type: ADME, organism-based; parameters: dose 1 mg/kg, route iv; conditions: in vivo
[21] = Protein binding in mouse plasma by dialysis method; type: ADME, cell-free; conditions: read-out: PPB (converted)
[22] = biological target: T1, Cannabinoid receptor 2; experiment: Agonist activity at LgBiT-fused CB2 receptor (unknown origin) coexpressed with miniGalphai-SmBiT in HEK293T cells assessed as G-protein recruitment by measuring complementation measured after 10 mins by NanoBiT luciferase assay; type: functional, cell-based
[23] = biological target: T1, Cannabinoid receptor 2; experiment: Agonist activity at N-terminal HA/Flag-tagged CB2 receptor (unknown origin) expressed in CHO cells assessed as increase in ERK1/2 phosphorylation measured after 15 mins by western blot analysis; type: functional, cell-based; conditions: filed as agonist, dose 12-300 nM
[24] = Clearance in BALB/c mouse at 1 mg/kg, iv; type: ADME, organism-based; conditions: in vivo
[25] = biological target: T1, Cannabinoid receptor 2; experiment: Agonist activity at N-terminal HA/Flag-tagged CB2 receptor (unknown origin) expressed in CHO cells assessed as increase in Akt phosphorylation at 300 nM measured after 15 mins in presence of CB2 receptor antagonist, AM630 by western blot analysis; type: functional, cell-based
[26] = Tmax in BALB/c mouse at 5 mg/kg, po; type: ADME, organism-based; conditions: in vivo
[27] = Half life in BALB/c mouse at 1 mg/kg, iv; type: ADME, organism-based; conditions: in vivo
[28] = biological target: T1, Cannabinoid receptor 2; experiment: Agonist activity at human CB2 receptor expressed in CHO cells assessed as inhibition of forskolin-stimulated intracellular cAMP accumulation measured after 30 mins by Glosensor assay; type: functional, cell-based
[29] = Protein binding in human plasma by dialysis method; type: ADME, cell-free; conditions: read-out: PPB (converted)
[30] = organism: Homo sapiens; experiment: Selectivity ratio of EC50 for agonist activity at human CB1 receptor expressed in CHO cells to EC50 for agonist activity at human CB2 receptor expressed in CHO cells; type: cell-based
[31] = Half life in BALB/c mouse at 20 mg/kg, po; type: ADME, organism-based; conditions: in vivo
[32] = Intrinsic clearance in mouse liver microsomes at 10 uM measured per mg protein; type: ADME, Microsome; conditions: read-out: CLH
[33] = Intrinsic clearance in human liver microsomes at 10 uM measured per mg protein; type: ADME, Microsome; conditions: read-out: CLH
[34] = Metabolic stability of the compound in human liver microsomes assessed as parent compound remaining at 10 uM measured after 60 mins; type: ADME, Microsome; conditions: read-out: Stability
[35] = AUC(0 to t) in BALB/c mouse at 5 mg/kg, po; type: ADME, organism-based; parameters: dose 5 mg/kg, route po; conditions: in vivo
[36] = Protein binding in rat plasma by dialysis method; type: ADME, cell-free; conditions: read-out: PPB (converted)
[37] = tested on: CHO; experiment: Induction of Akt phosphorylation in Chinese hamster CHO cells at 1000 nM measured after 15 mins by western blot analysis; type: cell-based; conditions: Cricetulus griseus
[38] = Intrinsic clearance in rat liver at 10 uM measured per kg body weight; type: ADME, tissue-based
[39] = biological target: T1, Cannabinoid receptor 2; experiment: Agonist activity at N-terminal HA/Flag-tagged CB2 receptor (unknown origin) expressed in CHO cells assessed as increase in ERK1/2 phosphorylation at 300 nM measured after 15 mins in presence of CB2 receptor antagonist, AM630 by western blot analysis; type: functional, cell-based
[40] = MRT(0 to t) in BALB/c mouse at 5 mg/kg, po; type: ADME, organism-based; conditions: in vivo
[41] = Tmax in BALB/c mouse at 1 mg/kg, iv; type: ADME, organism-based; conditions: in vivo
[42] = tested on: CHO; experiment: Induction of ERK1/2 phosphorylation in Chinese hamster CHO cells at 1000 nM measured after 15 mins by western blot analysis; type: cell-based; conditions: Cricetulus griseus
[43] = Bioavailability in BALB/c mouse at 5 mg/kg, ip; type: ADME, organism-based; conditions: in vivo
[44] = biological target: T1, Cannabinoid receptor 2; experiment: Agonist activity at LgBiT-fused CB2 receptor (unknown origin) coexpressed with miniGalphai-SmBiT in HEK293T cells assessed as G-protein recruitment measured after 10 mins in presence of CB2 receptor antagonist, AM630 by NanoBiT luciferase assay; type: functional, cell-based

T1 sequence (P34972 whole entry): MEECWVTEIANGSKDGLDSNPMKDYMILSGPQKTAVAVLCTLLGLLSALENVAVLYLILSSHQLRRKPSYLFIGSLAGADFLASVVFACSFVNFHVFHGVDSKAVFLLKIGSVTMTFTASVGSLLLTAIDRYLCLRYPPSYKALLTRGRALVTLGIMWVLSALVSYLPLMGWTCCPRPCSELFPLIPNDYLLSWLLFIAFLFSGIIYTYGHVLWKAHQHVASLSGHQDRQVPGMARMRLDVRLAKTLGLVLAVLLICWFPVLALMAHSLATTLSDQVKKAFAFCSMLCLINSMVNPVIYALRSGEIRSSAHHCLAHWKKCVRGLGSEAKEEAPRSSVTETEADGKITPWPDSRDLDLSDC
Chain of Cannabinoid receptor 1 (P21554 whole entry): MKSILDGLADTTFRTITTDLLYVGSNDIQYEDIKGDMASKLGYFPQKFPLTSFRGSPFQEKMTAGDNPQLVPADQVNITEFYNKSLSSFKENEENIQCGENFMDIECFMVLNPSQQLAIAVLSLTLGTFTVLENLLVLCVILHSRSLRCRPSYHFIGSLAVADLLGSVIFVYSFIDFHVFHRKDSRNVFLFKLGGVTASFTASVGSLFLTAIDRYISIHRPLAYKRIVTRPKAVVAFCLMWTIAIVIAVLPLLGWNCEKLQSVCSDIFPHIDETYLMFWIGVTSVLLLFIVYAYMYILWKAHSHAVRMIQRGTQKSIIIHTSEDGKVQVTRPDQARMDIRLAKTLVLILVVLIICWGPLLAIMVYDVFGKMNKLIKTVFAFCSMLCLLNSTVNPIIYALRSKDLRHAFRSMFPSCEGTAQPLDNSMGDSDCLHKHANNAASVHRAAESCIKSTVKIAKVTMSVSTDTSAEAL

With `O=C1CC(c2nc(-c3ccc(F)c4cn[nH]c34)no2)CCCN1c1ccc(F)cc1` (centres undefined) the half-life [1] was 56.4 min, the Activity [2] was “inactive” and the Activity [3] was “Dose-Dependent Effect”. For the same molecule, the MRT last [4] was 49.8 min, the Tmax [5] was 19.8 min and the CL/F [6] was 45.8 mL/min/kg. The CL/F [7] was 50.8 mL/min/kg, the Activity [8] was “inactive” and the Emax [9] was 87%. The Activity [10] was “inactive”, the bioavailability [11] was 80.5% and the half-life at 10 µM [12] was 13.1 min. The MRT last [13] was 1.71 h, the EC50 [14] was > 30 µM and the Cmax [15] was 1080 ng/mL. For the same molecule, the Activity [16] was “Active”, the CLH [17] was 415 mL/min/kg and the Activity [18] was “inactive”. The Activity [19] was “Dose-Dependent Effect”, the Cmax [20] was 615 ng/mL and the fraction unbound [21] was 0.032. For the same molecule, the EC50 [22] was 84.7 nM, the Activity [23] was “Dose-Dependent Effect” and the clearance [24] was 41.2 mL/min/kg. The Activity [25] was “inactive”, the Tmax [26] was 25.2 min and the half-life [27] was 70.8 min. For the same molecule, the EC50 [28] was 21 nM, the fraction unbound [29] was 0.011 and the Ratio EC50 [30] was > 1430. The half-life [31] was 224 min, the microsomal CLint at 10 µM [32] was 106 µL/min/mg and the microsomal CLint at 10 µM [33] was 23 µL/min/mg. It also gave a remaining at 1 h, 10 µM [34] of 46.3%, an AUC(0-t) [35] of 1660 ng·h/mL and a fraction unbound [36] of 0.074. For the same molecule, the Activity [37] was “inactive”, the CLH [38] was 232 mL/min/kg and the Activity [39] was “inactive”. The MRT last [40] was 2.14 h, the Tmax [41] was 4.8 min and the Activity [42] was “inactive”. For the same molecule, the bioavailability [43] was 88.5% and the Activity [44] was “inactive”.
